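Five compound concentrations were applied to cells in 96-well plates for 48 hours; endpoints were derived by simple linear interpolation of the resulting dose-response curve. GI50 = concentration required for 50% inhibition of growth. TGI denotes the concentration required for complete inhibition of growth.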

What is called TGI is the concentration giving total growth inhibition. Low readings indicate greater sensitivity of the cells, high ones lower sensitivity of the cells. Usually GI50 stands for the concentration at which growth is held to half of that of the control.

Test systems include SNB-19 CNS; HCT-116 colon; SN12C renal; SF-295 CNS; U251 CNS; ACHN renal; OVCAR-8 ovarian; SF-268 CNS; CAKI-1 renal.
Holding throughout (experiment): DTP human tumour cell line panel, 48 h

On to `COc1ccc2c(c1)[n+]([O-])c(-c1ccc(Br)cc1)c(N)[n+]2[O-]`, for which the concentration for total growth inhibition (TGI) with SNB-19 CNS, in the test with HCT-116 colon, in the test with SN12C renal, with SF-295 CNS, in the test with U251 CNS and in the test on ACHN renal was more than 100 µM in each case. In addition, the TGI in the test with OVCAR-8 ovarian, with SF-268 CNS and in the test on CAKI-1 renal was more than 100 µM throughout.
Consider `C[C@]12CCC[C@H](O)[C@H]1C[C@H](CO)CC2`, for which the total growth inhibition concentration (TGI) in the test with SNB-19 CNS, in the test on HCT-116 colon, in the test with SN12C renal, in the test with SF-295 CNS, in the test with U251 CNS and with ACHN renal was more than 100 µM throughout. Also, the TGI in the test with OVCAR-8 ovarian, in the test with SF-268 CNS and in the test with CAKI-1 renal was more than 100 µM throughout.
For `N.N.O=P([O-])([O-])CN(CCN(CP(=O)([O-])[O-])CP(=O)([O-])[O-])CP(=O)([O-])[O-].[Pt+2]`, the GI50 with SNB-19 CNS, with HCT-116 colon, in the test with SN12C renal, in the test with SF-295 CNS, in the test on U251 CNS and in the test with ACHN renal was more than 100 µM throughout. Further, the GI50 in the test with OVCAR-8 ovarian, in the test with SF-268 CNS and in the test with CAKI-1 renal was more than 100 µM each time. The concentration for total growth inhibition (TGI) with SNB-19 CNS, with HCT-116 colon, in the test with SN12C renal, in the test on SF-295 CNS, in the test on U251 CNS and with ACHN renal was more than 100 µM in each case. Besides, the total growth inhibition concentration (TGI) in the test on OVCAR-8 ovarian, in the test with SF-268 CNS and in the test on CAKI-1 renal was more than 100 µM in each case.
As to `CSc1nc2c(nc(N)n2C2OC(COC(C)=O)C(OC(C)=O)C(OC(C)=O)C2OC(C)=O)c(=O)n1C` (stereo unspecified), the TGI with SNB-19 CNS, in the test with HCT-116 colon, in the test with SN12C renal, in the test on SF-295 CNS, in the test with U251 CNS and with ACHN renal was more than 100 µM each time. For the same compound, the TGI with OVCAR-8 ovarian and with CAKI-1 renal was more than 100 µM each time.
For the compound `COC(=O)NC(=Nc1ccc(Oc2ccccc2)cc1NC=O)NC(=O)OC`, the TGI was more than 100 µM with SNB-19 CNS; 28 µM in the test with HCT-116 colon; more than 100 µM in the test on SN12C renal; more than 100 µM with SF-295 CNS; 1.21 µM in the test with U251 CNS; more than 100 µM with ACHN renal. For the same compound, the TGI in the test on OVCAR-8 ovarian was 8.57 µM; in the test on SF-268 CNS it was more than 100 µM.
Consider `C/C=C(/CCC1NCCC2c3ccccc3NC12)[Si](C)(C)C` (stereo unspecified), for which the TGI in the test with SNB-19 CNS is 29 µM; with HCT-116 colon, 11.9 µM; in the test on SN12C renal, 23.9 µM; in the test on SF-295 CNS, 29.1 µM; in the test on U251 CNS, 25.4 µM; in the test with ACHN renal, 27.2 µM. In addition, the TGI in the test with OVCAR-8 ovarian was 21.1 µM; in the test on SF-268 CNS, 23.5 µM; with CAKI-1 renal, 22.8 µM.
Regarding `COC(=O)C1=Cc2cc(OC)c(OC)cc2[C@H](c2ccc(OC)c(OC)c2)C1C(=O)OC` (stereo partly specified), the TGI in the test on SNB-19 CNS, with HCT-116 colon, with SN12C renal, in the test on SF-295 CNS, in the test with U251 CNS and in the test with ACHN renal was more than 100 µM each time. In addition, the TGI in the test on OVCAR-8 ovarian, with SF-268 CNS and in the test with CAKI-1 renal was more than 100 µM throughout.
Regarding `O=C(/C=C/c1ccccc1Cl)c1cccc2ccccc12`, the concentration for total growth inhibition (TGI) in the test with SNB-19 CNS was 16.8 µM; in the test on HCT-116 colon, 12.8 µM; in the test with SN12C renal, more than 100 µM; in the test on SF-295 CNS, 25.4 µM; in the test with U251 CNS it was 8.45 µM; in the test on ACHN renal, 30.4 µM. The TGI is 4.19 µM with OVCAR-8 ovarian, 28.4 µM in the test on SF-268 CNS and 25.4 µM in the test with CAKI-1 renal.
As for `COC(=O)N/N=C(\C(=O)Nc1cccc([N+](=O)[O-])c1)c1nc2ccc([N+](=O)[O-])cc2[nH]c1=O`, the TGI with SNB-19 CNS, in the test with HCT-116 colon, with SN12C renal, in the test with SF-295 CNS, in the test on ACHN renal and with OVCAR-8 ovarian was more than 100 µM throughout. Besides, in the test with SF-268 CNS, the TGI was 13.3 µM.
On to `NC(=O)c1ncn(CCN2CCN(C(=O)NCCCCCCNC(=O)N3CCN(CCn4cnc(C(N)=O)c4N)CC3)CC2)c1N`, for which the TGI in the test with SNB-19 CNS, with HCT-116 colon, in the test on SN12C renal, in the test with SF-295 CNS, in the test with U251 CNS and in the test on ACHN renal was more than 100 µM in each case. Also, the TGI with OVCAR-8 ovarian, with SF-268 CNS and in the test with CAKI-1 renal was more than 100 µM in each case.
As to `Clc1nc(Cl)c2c3c(sc2n1)CCCC3`, the GI50 was more than 100 µM in the test on SNB-19 CNS; 3.95 µM in the test on HCT-116 colon; 3.26 µM in the test with SN12C renal; more than 100 µM in the test with SF-295 CNS; more than 20 µM in the test with U251 CNS; 5.27 µM in the test with ACHN renal. Also, the GI50 was 4.38 µM with OVCAR-8 ovarian, 4.37 µM in the test on SF-268 CNS and more than 100 µM with CAKI-1 renal. Moreover, the total growth inhibition concentration (TGI) in the test with SNB-19 CNS, with HCT-116 colon, with SN12C renal, with SF-295 CNS, in the test with U251 CNS and with ACHN renal was more than 100 µM throughout. The TGI in the test with OVCAR-8 ovarian, with SF-268 CNS and in the test with CAKI-1 renal was more than 100 µM each time.
For the compound `O=C(CC1(O)C(=O)Nc2ccccc21)c1ccc(F)cc1` (stereo unspecified), the TGI in the test on SNB-19 CNS, in the test on HCT-116 colon, in the test on SN12C renal, in the test with SF-295 CNS, in the test with ACHN renal and in the test on OVCAR-8 ovarian was more than 100 µM in each case. The total growth inhibition concentration (TGI) in the test with SF-268 CNS and with CAKI-1 renal was more than 100 µM each time.

Values taken from PubChem BioAssay (NCI).
